The values below come from ChEMBL document CHEMBL3797113, “Structural requirements of acylated Gly-l-Ala-d-Glu analogs for activation of the innate immune receptor NOD2” (Eur J Med Chem, 2016).

Data set [1] is described as follows: Cytotoxicity against NOD2 expressing HEK-Blue cells assessed as residual metabolic activity at 20 uM after 18 hrs by MTS assay relative to control. Particulars: human, read-out: Activity. The class given is ADME, cell-based. Background: Tetrazolium dyes change colour on reduction, which living cells bring about.
The target of data set [2] is T1, Nucleotide-binding oligomerization domain-containing protein 2 (Homo sapiens, UniProt Q9HC29). In words: Agonist activity at NOD2 receptor (unknown origin) expressed in HEK-Blue cells assessed as NF-kappaB transcriptional activity at 20 uM after 18 hrs by secreted embryonic alkaline phosphatase reporter gene assay relative to untreated control. The class given is cell-based.

Data set [3] has as its target T2, Nucleotide-binding oligomerization domain-containing protein 1 (Homo sapiens) (UniProt Q9Y239).
T2 sequence (whole entry): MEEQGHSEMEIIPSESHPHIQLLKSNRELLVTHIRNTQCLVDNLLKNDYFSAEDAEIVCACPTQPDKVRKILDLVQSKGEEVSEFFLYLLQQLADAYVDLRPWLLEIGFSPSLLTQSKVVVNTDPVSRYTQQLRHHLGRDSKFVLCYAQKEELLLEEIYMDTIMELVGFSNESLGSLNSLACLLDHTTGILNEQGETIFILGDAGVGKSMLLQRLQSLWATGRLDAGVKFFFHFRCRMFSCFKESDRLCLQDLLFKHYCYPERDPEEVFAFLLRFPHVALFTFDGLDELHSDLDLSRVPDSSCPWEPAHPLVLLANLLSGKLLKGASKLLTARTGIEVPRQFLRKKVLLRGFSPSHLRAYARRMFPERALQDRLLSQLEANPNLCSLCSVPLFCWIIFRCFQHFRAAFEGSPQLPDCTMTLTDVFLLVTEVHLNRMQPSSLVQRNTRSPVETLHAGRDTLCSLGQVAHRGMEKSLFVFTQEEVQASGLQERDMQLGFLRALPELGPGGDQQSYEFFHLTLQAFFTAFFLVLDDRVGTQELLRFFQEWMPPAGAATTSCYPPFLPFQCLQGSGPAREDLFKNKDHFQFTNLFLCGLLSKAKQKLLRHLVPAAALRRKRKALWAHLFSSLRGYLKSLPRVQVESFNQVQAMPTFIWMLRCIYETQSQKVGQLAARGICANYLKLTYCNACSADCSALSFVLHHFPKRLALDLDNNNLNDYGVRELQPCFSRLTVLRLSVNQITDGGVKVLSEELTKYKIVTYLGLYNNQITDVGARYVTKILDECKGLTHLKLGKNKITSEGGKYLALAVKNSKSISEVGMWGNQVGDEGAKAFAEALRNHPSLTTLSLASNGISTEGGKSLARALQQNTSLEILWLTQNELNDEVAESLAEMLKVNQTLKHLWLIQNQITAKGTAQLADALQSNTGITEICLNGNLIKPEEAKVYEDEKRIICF
The experiment in a line: Agonist activity at NOD1 receptor (unknown origin) expressed in HEK-Blue cells assessed as NF-kappaB transcriptional activity at 20 uM after 18 hrs by secreted embryonic alkaline phosphatase reporter gene assay. The class given is cell-based.

Data set [4] deals with T1, Nucleotide-binding oligomerization domain-containing protein 2. The experiment in a line: Agonist activity at NOD2 receptor (unknown origin) expressed in HEK-Blue cells assessed as NF-kappaB transcriptional activity after 18 hrs by secreted embryonic alkaline phosphatase reporter gene assay. The class given is cell-based. (Reporter assays use an easily measured gene product as a stand-in for the process of interest.)

Active and inactive are the calls of the source. The rule behind the calls is not given here. Bounds are passed on as bounds.

T1 sequence (Q9HC29 whole entry, the tested form may be a part): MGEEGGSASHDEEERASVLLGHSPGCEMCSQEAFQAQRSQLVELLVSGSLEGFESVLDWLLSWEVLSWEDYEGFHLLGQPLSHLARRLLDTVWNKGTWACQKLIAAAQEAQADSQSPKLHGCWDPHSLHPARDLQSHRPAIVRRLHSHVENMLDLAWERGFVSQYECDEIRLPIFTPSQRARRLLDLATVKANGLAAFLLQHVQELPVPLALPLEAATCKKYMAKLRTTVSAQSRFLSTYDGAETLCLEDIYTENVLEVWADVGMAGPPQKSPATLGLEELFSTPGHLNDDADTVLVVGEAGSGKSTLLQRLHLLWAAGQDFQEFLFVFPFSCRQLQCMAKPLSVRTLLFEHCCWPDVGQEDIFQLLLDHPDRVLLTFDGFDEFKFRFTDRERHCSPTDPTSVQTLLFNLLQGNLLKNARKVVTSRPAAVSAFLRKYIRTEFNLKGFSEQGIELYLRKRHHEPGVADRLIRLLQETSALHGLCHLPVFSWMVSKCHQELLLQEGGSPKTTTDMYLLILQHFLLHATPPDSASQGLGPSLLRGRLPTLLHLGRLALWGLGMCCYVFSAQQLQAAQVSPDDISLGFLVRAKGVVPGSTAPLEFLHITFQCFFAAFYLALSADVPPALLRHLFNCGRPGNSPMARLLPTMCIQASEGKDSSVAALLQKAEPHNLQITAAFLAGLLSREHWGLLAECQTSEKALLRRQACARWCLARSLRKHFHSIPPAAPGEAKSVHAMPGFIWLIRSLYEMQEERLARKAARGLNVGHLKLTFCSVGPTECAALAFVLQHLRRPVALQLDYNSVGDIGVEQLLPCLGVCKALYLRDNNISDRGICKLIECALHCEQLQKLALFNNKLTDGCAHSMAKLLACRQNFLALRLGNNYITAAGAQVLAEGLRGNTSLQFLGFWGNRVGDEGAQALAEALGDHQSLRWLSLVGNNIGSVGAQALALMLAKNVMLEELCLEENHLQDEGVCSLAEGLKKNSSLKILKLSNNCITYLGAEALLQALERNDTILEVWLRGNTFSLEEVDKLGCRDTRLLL

With `CCOC(=O)CC[C@@H](NC(=O)[C@H](C)NC(=O)CNC(=O)C(=O)Nc1ccccc1)C(=O)OCC`, the viability at 18 h, 20 µM in data set [1] is not below 80%. Also, in data set [2], the fold change (FC) is 1.15. Further, the outcome in data set [3] was inactive.

Turning to `CCOC(=O)CC[C@@H](NC(=O)[C@H](C)NC(=O)CNC(=O)C1Cc2ccccc2N1)C(=O)OCC` (some centres not stated), the viability at 18 h, 20 µM in data set [1] is not below 80%. In data set [2], the fold change (FC) amounted to 3.17. For the same compound, the result in data set [3] was inactive.

With `CCOC(=O)CC[C@@H](NC(=O)[C@H](C)NC(=O)CNC(=O)c1cc2cccc(-c3ccccc3)c2[nH]1)C(=O)OCC`, the viability at 18 h, 20 µM in data set [1] is not below 80%. The fold change (FC) in data set [2] was determined as 6.51. The result in data set [3] was inactive.

Turning to `CCOC(=O)CC[C@@H](NC(=O)[C@H](C)NC(=O)CNC(=O)/C=C/c1ccccc1)C(=O)OCC`, in data set [1], the viability at 18 h, 20 µM is not below 80%. Besides, in data set [2], the fold change (FC) was 7.37. Moreover, the result in data set [3] was inactive.

As a reminder, the EC50 is the concentration needed to bring the measured effect to its halfway point. Regarding `CC(=O)N[C@H]1C(O)O[C@H](CO)[C@@H](O)[C@@H]1O[C@H](C)C(=O)N[C@@H](C)C(=O)N[C@H](CCC(=O)O)C(N)=O` (some centres not stated) [MURAMYL DIPEPTIDE], the fold change (FC) in data set [2] worked out at 11.5. Also, the outcome in data set [3] was inactive. Besides, in data set [4], the Activity result was “Dose-dependent effect” and the EC50 came to 46 nM.

For the compound `CCOC(=O)CC[C@@H](NC(=O)[C@H](C)NC(=O)CNC(=O)c1c[nH]c2ccccc12)C(=O)OCC`, in data set [1], the viability at 18 h, 20 µM is not below 80%. Also, the fold change (FC) in data set [2] turned out to be 1.22. Also, the outcome in data set [3] was inactive.

For `CCOC(=O)CC[C@@H](NC(=O)[C@H](C)NC(=O)CNC(=O)c1cc2ccccc2n1Cc1ccc(F)cc1)C(=O)OCC`, the viability at 18 h, 20 µM in data set [1] is not below 80%. Moreover, the fold change (FC) in data set [2] is 2.8. Also, the outcome in data set [3] was inactive.

For the compound `CCOC(=O)CC[C@@H](NC(=O)[C@H](C)NC(=O)CNC(=O)c1cc2c(-c3ccccc3)cccc2[nH]1)C(=O)OCC`, in data set [1], the viability at 18 h, 20 µM is not below 80%. Moreover, the fold change (FC) in data set [2] stood at 2.95. For the same compound, in data set [3], the result was inactive.

As to `CCOC(=O)CC[C@@H](NC(=O)[C@H](C)NC(=O)CNC(=O)c1cc2cc(-c3ccccc3)ccc2[nH]1)C(=O)OCC`, the viability at 18 h, 20 µM in data set [1] is not below 80%. Besides, the fold change (FC) in data set [2] was 10.4. For the same compound, the result in data set [3] was inactive.

Consider `CCOC(=O)CC[C@@H](NC(=O)[C@H](C)NC(=O)CNC(=O)c1cc2ccccc2n1C)C(=O)OCC`, for which the viability at 18 h, 20 µM in data set [1] is not below 80%. In addition, the fold change (FC) in data set [2] is 2.14. Moreover, in data set [3], the result was inactive.

For `CCOC(=O)CC[C@@H](NC(=O)[C@H](C)NC(=O)CNC(=O)C1Cc2ccccc2N1C(=O)OC(C)(C)C)C(=O)OCC` (some centres not stated), the viability at 18 h, 20 µM in data set [1] is not below 80%. Also, the fold change (FC) in data set [2] worked out at 2.58. Also, the outcome in data set [3] was inactive.

Turning to `Cc1nc(CC[C@@H](NC(=O)[C@H](C)NC(=O)CNC(=O)c2cc3ccccc3[nH]2)c2noc(C)n2)no1`, the viability at 18 h, 20 µM in data set [1] was not below 80%. Also, the outcome in data set [2] and in data set [3] was inactive.

Consider `CCOC(=O)CC[C@@H](NC(=O)[C@H](C)NC(=O)CNC(=O)c1cc2ccccc2[nH]1)C(=O)OCC`, for which the fold change (FC) in data set [2] was determined as 5.2. The outcome in data set [3] was inactive.

For `CCOC(=O)CC[C@@H](NC(=O)[C@H](C)NC(=O)CNC(=O)c1cc2cc(F)ccc2[nH]1)C(=O)OCC`, in data set [1], the viability at 18 h, 20 µM was not below 80%. In addition, the fold change (FC) in data set [2] was found to be 3.02. Besides, in data set [3], the outcome was inactive.

As for `CCOC(=O)CC[C@@H](NC(=O)[C@H](C)NC(=O)CNC(=O)c1cc2ccc(-c3ccccc3)cc2[nH]1)C(=O)OCC`, the viability at 18 h, 20 µM in data set [1] was not below 80%. The fold change (FC) in data set [2] was found to be 11.2. Further, the result in data set [3] was inactive. In addition, in data set [4], the Activity entry was “Dose-dependent effect” and the EC50 came to 2880 nM.

For the compound `CCOC(=O)CC[C@@H](NC(=O)[C@H](C)NC(=O)CCNC(=O)c1cc2ccccc2[nH]1)C(=O)OCC`, in data set [1], the viability at 18 h, 20 µM is not below 80%. Moreover, in data set [2], the fold change (FC) worked out at 1.41. The outcome in data set [3] was inactive.

With `C[C@H](NC(=O)CNC(=O)c1cc2ccccc2[nH]1)C(=O)N[C@H](CCC(=O)OCc1ccccc1)C(=O)OCc1ccccc1`, the viability at 18 h, 20 µM in data set [1] is not below 80%. Besides, in data set [2], the fold change (FC) stood at 8.82. Further, the outcome in data set [3] was inactive.

For `CCOC(=O)CC[C@@H](NC(=O)[C@H](C)NC(=O)CNC(=O)c1cc2cc(Br)ccc2[nH]1)C(=O)OCC`, in data set [1], the viability at 18 h, 20 µM was not below 80%. The fold change (FC) in data set [2] was found to be 4.58. Besides, the outcome in data set [3] was inactive.

With `CCOC(=O)CC[C@@H](NC(=O)[C@H](C)NC(=O)CNC(=O)c1ccc[nH]1)C(=O)OCC`, in data set [1], the viability at 18 h, 20 µM is not below 80%. Also, the fold change (FC) in data set [2] is 1.08. Besides, the outcome in data set [3] was inactive.

As for `C[C@H](NC(=O)CNC(=O)c1cc2ccccc2[nH]1)C(=O)N[C@H](CCC(=O)O)C(=O)O`, the viability at 18 h, 20 µM in data set [1] was not below 80%. For the same compound, the fold change (FC) in data set [2] came out at 2.1. In data set [3], the result was inactive.
